Measurements as given in patent publication US11365187B2, “Pesticidally active pyrazole derivatives” (SYNGENTA PARTICIPATIONS AG, priority 2017, dated 2022).
Where two headings read alike, the source gives them in different places.

Key:
Assay type in all cases: in vivo
[1] = tested on: Euschistus heros (Neotropical Brown Stink Bug); experiment: Euschistus heros feeding/contact activity on soybean leaves; settings: 120 h
Procedure: Euschistus heros (Neotropical Brown Stink Bug): Feeding/contact activity
Soybean leaves on agar in 24-well microtiter plates were sprayed with aqueous test solutions prepared from 10′000 ppm DMSO stock solutions. After drying the leaves were infested with N2 nymphs. The samples were assessed for mortality 5 days after infestation.

[2] = tested on: Diabrotica balteata (Corn root worm); experiment: Diabrotica balteata (Corn root worm) mortality on sprayed maize sprouts; settings: 96 h
Procedure: Diabrotica balteata (Corn root worm):
Maize sprouts placed onto an agar layer in 24-well microtiter plates were treated with aqueous test solutions prepared from 10′000 ppm DMSO stock solutions by spraying. After drying, the plates were infested with L2 larvae (6 to 10 per well). The samples were assessed for mortality 4 days after infestation.

[3] = tested on: Spodoptera littoralis (Egyptian cotton leaf worm); experiment: Spodoptera littoralis feeding/contact activity on cotton leaf discs; settings: foliar, 72 h
Procedure: Spodoptera littoralis (Egyptian cotton leaf worm): Feeding/contact activity
Cotton leaf discs were placed onto agar in 24-well microtiter plates and sprayed with aqueous test solutions prepared from 10′000 ppm DMSO stock solutions. After drying the leaf discs were infested with five L1 larvae. The samples were assessed for mortality 3 days after infestation. […] 2, 3, 4, 5, 6, 7, 8, 9, 10, 11, 12, 13, 14, 15, 16, 17, 18, 19, 20, 21, 22, 23, 24, 25, 26, 27, 28 and 29.

[4] = tested on: Tetranychus urticae (Two-spotted spider mite); experiment: Tetranychus urticae feeding/contact activity on bean leaf discs; settings: foliar, 192 h, read-out: mortality on mixed population (mobile stages)
Procedure: Tetranychus urticae (Two-spotted spider mite): Feeding/contact activity
Bean leaf discs on agar in 24-well microtiter plates were sprayed with aqueous test solutions prepared from 10′000 ppm DMSO stock solutions. After drying the leaf discs were infested with a mite population of mixed ages. The samples were assessed for mortality on mixed population (mobile stages) 8 days after infestation.

[5] = tested on: Thrips tabaci (Onion thrips); experiment: Thrips tabaci feeding/contact activity on sunflower leaf discs; settings: foliar, 144 h
Procedure: Thrips tabaci (Onion thrips): Feeding/Contact activity
Sunflower leaf discs were placed on agar in 24-well microtiter plates and sprayed with aqueous test solutions prepared from 10′000 ppm DMSO stock solutions. After drying the leaf discs were infested with a thrips population of mixed ages. The samples were assessed for mortality 6 days after infestation.

[6] = tested on: Plutella xylostella (Diamond back moth); experiment: Plutella xylostella feeding/contact activity on artificial diet; settings: 120 h
Procedure: Plutella xylostella (Diamond back moth): Feeding/contact activity
24-well microtiter plates with artificial diet were treated with aqueous test solutions prepared from 10′000 ppm DMSO stock solutions by pipetting. After drying, the plates were infested with L2 larvae (10 to 15 per well). The samples were assessed for mortality 5 days after infestation.

[7] = tested on: Myzus persicae (Green peach aphid); experiment: Myzus persicae feeding/contact activity on sunflower leaf discs; settings: foliar, 144 h
Procedure: Myzus persicae (Green peach aphid): Feeding/Contact activity
Sunflower leaf discs were placed onto agar in a 24-well microtiter plate and sprayed with aqueous test solutions prepared from 10′000 ppm DMSO stock solutions. After drying, the leaf discs were infested with an aphid population of mixed ages. The samples were assessed for mortality 6 days after infestation.

[8] = application rate 200 ppm, N2 nymphs, assessed 5 days after infestation, read-out: mortality
[9] = application rate 200 ppm, L2 larvae, assessed 4 days after infestation, read-out: mortality
[10] = application rate 200 ppm, L1 larvae, assessed 3 days after infestation, read-out: mortality
[11] = application rate 200 ppm, mite population of mixed ages, assessed 8 days after infestation
[12] = application rate 200 ppm, thrips population of mixed ages, assessed 6 days after infestation, read-out: mortality
[13] = application rate 200 ppm, L2 larvae, assessed 5 days after infestation, read-out: mortality
[14] = application rate 200 ppm, aphid population of mixed ages, assessed 6 days after infestation, read-out: mortality

Measured: mortality at 200 ppm

CC(=O)N(C(=O)c1cc(-c2cnn(-c3c(OC(F)F)c(C(F)(C(F)(F)F)C(F)(F)F)nn3C)c2)ccc1Cl)C1(C#N)CC1 [Example 12, N-acetyl-2-chloro-N-(1-cyanocyclopropyl)-5-[1-[4-(difluoromethoxy)-2-methyl-5-[1,2,2,2-tetrafluoro-1-(trifluoromethyl)ethyl]pyrazol-3-yl]pyrazol-4-yl]benzamide]
≥ 80%: [1]; [8] | [2]; [9] | [3]; [10] | [4]; [11] | [5]; [12] | [6]; [13] | [7]; [14]

COC(=O)N(C(=O)c1cc(-c2cnn(-c3c(OC(F)F)c(C(F)(C(F)(F)F)C(F)(F)F)nn3C)c2)ccc1Cl)C1(C#N)CC1 [Example 18, methyl N-[2-chloro-5-[1-[4-(difluoromethoxy)-2-methyl-5-[1,2,2,2-tetrafluoro-1-(trifluoromethyl)ethyl]pyrazol-3-yl]pyrazol-4-yl]benzoyl]-N-(1-cyanocyclopropyl)carbamate]
≥ 80%: [1] | [2] | [3] | [4] | [5] | [6] | [7]

Cn1nc(C(F)(C(F)(F)F)C(F)(F)F)c(OC(F)F)c1-n1cc(-c2cnc(Cl)c(C(=O)NC3(C#N)CC3)c2)cn1 [Example 19, 2-chloro-N-(1-cyanocyclopropyl)-5-[1-[4-(difluoromethoxy)-2-methyl-5-[1,2,2,2-tetrafluoro-1-(trifluoromethyl)ethyl]pyrazol-3-yl]pyrazol-4-yl]pyridine-3-carboxamide]
≥ 80%: [1]; [8] | [2]; [9] | [3]; [10] | [4]; [11] | [5]; [12] | [6]; [13] | [7]; [14]
